Reference: paper PMC12490239, “Combining BET inhibition with SMAC mimetics restricts tumor growth and triggers immune surveillance in preclinical cancer models” (Cell Reports Medicine, 2025)

Legend:
Assay in all cases: cells
Set-up in all cases: CellTiter-Glo 2.0 luminescence proliferation/viability assay, single agents, human tumour cell line panel
[1] = system: SNU1040; conditions: 96 h; single agent; read-out: IC50 SMACm
In short: (§1)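 Human tumour cell lines were seeded into assay plates and held at 37°C with 5% CO2 for twenty-four hours, then exposed in triplicate to rising concentrations of the SMAC mimetic, from 4.5 nM to 10 μM, with DMSO as control. After 96 h, viability was read as CellTiter-Glo2.0 luminescence to derive single-agent IC50 values.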

[2] = system: CFPAC-1; conditions: Homo sapiens, CFPAC-1, 96 h; single agent; read-out: IC50 SMACm
In short: as §1

[3] = system: HCA46; conditions: 96 h; single agent; read-out: IC50 SMACm
In short: as §1

[4] = system: NCI-H520; conditions: Homo sapiens, NCI-H520, 96 h; single agent; read-out: IC50 SMACm
In short: as §1

[5] = system: COLO678; conditions: Homo sapiens, COLO-678, 96 h; single agent; read-out: IC50 SMACm
In short: as §1

[6] = system: MDST8; conditions: MDST8, 96 h; single agent; read-out: IC50 SMACm
In short: as §1

[7] = system: SNU1181; conditions: 96 h; single agent; read-out: IC50 SMACm
In short: as §1

[8] = system: HPAF-II; conditions: Homo sapiens, HPAF-II, 96 h; single agent; read-out: IC50 SMACm
In short: as §1

[9] = system: NCI-H292; conditions: Homo sapiens, NCI-H292, 96 h; single agent; read-out: IC50 SMACm
In short: as §1

[10] = system: SUIT-2; conditions: SUIT-2, 96 h; single agent; read-out: IC50 SMACm
In short: as §1

[11] = system: SNU503; conditions: 96 h; single agent; read-out: IC50 SMACm
In short: as §1

[12] = system: HT-115; conditions: HT115, 96 h; single agent; read-out: IC50 SMACm
In short: as §1

[13] = system: BxPC-3; conditions: Homo sapiens, BXPC-3, 96 h; single agent; read-out: IC50 SMACm
In short: as §1

[14] = system: KLM-1; conditions: KLM1, 96 h; single agent; read-out: IC50 SMACm
In short: as §1

[15] = system: NCI-H441; conditions: Homo sapiens, NCI-H441, 96 h; single agent; read-out: IC50 SMACm
In short: as §1

CN[C@@H](C)C(=O)Nc1ccc(-c2c(-c3cccnc3OC)nc3cc(C)ccn23)c(C#Cc2ccc3c(C)nccc3c2)n1 [SMACm, BI 891065]
IC50 [1]: 3.59 µM | IC50 [2]: 1.99 µM | IC50 [3]: 3.54 µM | IC50 [4]: 4.01 µM | IC50 [5]: 2.59 µM | IC50 [6]: 4.78 µM | IC50 [7]: 5.08 µM | IC50 [8]: 4.64 µM | IC50 [9]: 6.03 µM | IC50 [10]: 4.77 µM | IC50 [11]: 5.23 µM | IC50 [12]: 3.87 µM | IC50 [13]: 0.53 µM | IC50 [14]: 3.93 µM | IC50 [15]: 6.13 µM
